Converted amounts (≈) assume the structure as drawn. Like-named read-outs stand apart in the source and are kept apart here.
Key:
[1] = system: SARS-CoV; conditions: cited from earlier work
[2] = system: SARS-CoV; format: cell-based
[3] = system: vaccinia virus (WR); format: cell-based
[4] = system: SARS-CoV; assay: microbe, parasite or virus in culture; format: cell-based
[5] = system: Adenovirus; format: cell-based
[6] = system: Vero cells
[7] = system: Ebola; format: cell-based
[8] = in vitro; conditions: African green monkey
[9] = biological target: H1L phosphatase (GST-H1L fusion protein) (Vaccinia virus, UniProt P07239); assay: biochemical
[10] = system: West Nile Virus; format: cell-based
[11] = system: adenovirus type 5 expressing EGFP; format: cell-based
[12] = system: vaccinia virus (WR); format: cell-based; remark: listed apart in the source

CC1(C)[C@@H](O[C@H]2O[C@H](C(=O)O)[C@@H](O)[C@H](O)[C@H]2O[C@@H]2O[C@H](C(=O)O)[C@@H](O)[C@H](O)[C@H]2O)CC[C@]2(C)[C@H]3C(=O)C=C4[C@@H]5C[C@@](C)(C(=O)O)CC[C@]5(C)CC[C@@]4(C)[C@]3(C)CC[C@@H]12 [glycyrrhizin]
inhibition effect on SARS-CoV replication (logs) [1]: two logs or less

O=C(O)C1=CC(=C(c2ccc(O)c(C(=O)O)c2)c2ccc(O)c(C(=O)O)c2)C=CC1=O [ATA, aurintricarboxylic acid]
inhibition of virus RNA replication [2]: more than 1,000 fold | potency of ATA relative to interferon α as anti-SARS-CoV agent [2]: about 10 times | potency of ATA relative to interferon β as anti-SARS-CoV agent [2]: ~100 times | plaque count (peak viral load) [3]: 616 pfu/mL | viral count in treated sample as share of untreated control [3]: 0.00026% | inhibition of virus replication compared to untreated controls [4]: ≤ 1000 fold | viral replication level lower than control [4]: 10 times | EC50 ([4]; Severe acute respiratory syndrome coronavirus, Vero): 0.2 mg/mL (≈ 0.474 mM) | effect on Adenovirus [5]: no effect | toxicity associated with treatment [6]: little toxicity | effect on Ebola [7]: no effect | CC50 [8]: 37.5 mg/mL (≈ 88.8 mM) | IC50 [9]: 16 µM | inhibition of West Nile Virus [10]: 10000 fold | inhibition of EGFP expression by adenovirus [11]: No significant inhibition | lowest drug concentration at which block in vaccinia replication was evident [12]: 25 µg/mL

IFNα
inhibition effect with pre-treatment compared with samples without pre-treatment [2]: about the same | inhibition of virus RNA replication [2]: 100 fold | EC50 [4]: 500 IU/ml | CC50 [6]: 15000 IU/ml

Cc1c(O)cccc1C(=O)N[C@@H](CSc1ccccc1)[C@H](O)CN1C[C@H]2CCCC[C@H]2C[C@H]1C(=O)NC(C)(C)C [nelfinavir]
inhibition effect on SARS-CoV replication (logs) [1]: two logs or less

NC(=O)c1ncn([C@@H]2O[C@H](CO)[C@@H](O)[C@H]2O)n1 [ribavarin]
effect against SARS-CoV replication [1]: little effect
